Reference: paper PMC4980783 (Chemistry Central Journal, 2016)
Values joined by “and” are separate entries in the source; they are usually repeats but may differ in a detail not shown here. Identical values can stand only once. Like-named read-outs stand apart in the source and are kept apart here.

Biological target: influenza virus NA (Influenza A virus, UniProt Q6DPL2)
Format: biochemical
Conditions: single replicates (3)

Sequence of influenza virus NA (Q6DPL2 whole entry, looked up): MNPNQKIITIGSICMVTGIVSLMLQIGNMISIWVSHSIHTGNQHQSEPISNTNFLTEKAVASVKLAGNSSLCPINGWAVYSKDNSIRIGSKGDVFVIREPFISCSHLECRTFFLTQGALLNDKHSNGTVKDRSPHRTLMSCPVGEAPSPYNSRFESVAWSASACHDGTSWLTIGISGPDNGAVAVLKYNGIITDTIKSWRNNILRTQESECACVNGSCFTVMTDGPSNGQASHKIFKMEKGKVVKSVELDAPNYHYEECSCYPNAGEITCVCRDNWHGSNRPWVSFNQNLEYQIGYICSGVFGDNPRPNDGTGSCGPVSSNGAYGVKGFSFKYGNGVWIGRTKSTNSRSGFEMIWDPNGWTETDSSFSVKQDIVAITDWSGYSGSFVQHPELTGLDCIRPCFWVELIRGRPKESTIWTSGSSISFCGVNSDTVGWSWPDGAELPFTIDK

SMILES: CC(=O)N[C@H]1[C@H]([C@H](O)[C@H](O)CO)OC(C(=O)O)=C[C@@H]1N=C(N)N [Zanamivir, zanamivir]
- inhibition rates (first line per compound): 100.00 and 99.40 and 99.96
- inhibition rates (second line per compound, presumably 5-fold diluted (Sheet1)): 44.04 and 41.05
- inhibition rates (third line per compound): 17.05 and 17.04 and 19.04
